Test results reported in patent EP4112728A1, “METHOD FOR I[…]-BINDING PEPTIDES” (ETH Zürich, priority 2021, dated 2023).

What was measured:
[1] = system: other clinically relevant Gram negative and positive bacteria; assay: Minimal inhibitory concentration (MIC) against other strains; type: cell-based; details: range over the strains tested (FIG.21)
cspA promoter = assay: Stress response assay, cold shock response (PcspA-gfp) indicating translation inhibition; type: cell-based, E. coli; details: GFP under cspA promoter, relative to inactive control HNP-1; one sided t-test, adj. p<0.05
Text: Lastly, the inventors characterized the 50 most growth inhibitory (38 SIMILARS, 12 PARENTS) peptides using different assays (FIG.18). The inventors first used two biosensor constructs, containing the cspA and recA promoters, which upon activation are indicative of translation impairment and DNA damage, respectively. […] Next, the inventors measured membrane damage by quantifying propidium iodide (PI) uptake.
The inventors selected peptide-expressing strains of rank 1-50, previously generated for the monoseptic growth assay. […] Moreover, two plasmids (cloning vector: puA66) containing either the promoter of the gene for recombinase A (PrecA) or for the gene for cold shock protein A (PcspA) were purified from the E. coli Alon collection. Both plasmids contained a transcriptional fusion of their promoter with a downstream gene for green fluorescent protein (gfp), an additional kanamycin resistance cassette and a pSC101 origin of replication. […] The inventors recorded OD and GFP expression (λEx 488 nm/λEm 530nm) after 1.5 h and 4.5 h using a Tecan Infinite 200 PRO (37 °C, 1.5 mm orbital shaking). For each strain, the inventors calculated the specific fluorescence change between the two time points (GFP/OD (4.5 h) - GFP/OD (1.5 h)). Statistical significance was calculated by one sided t-tests, adjusted for multiple testing by Benjamini-Hochberg, using the signal of HNP-13425 APD

## GWFKKAWRKVKHAGRRVLDTAKGVGRHYLNNWLNRYR [ID 4545]
[1]
  MIC: 0.4 to 5.6 µM

## VDKGGYLPRPTPPRPVYR [ID 7122]
cspA promoter
  translational impairment: strongest indication for translational impairment
